# According to patent EP2970215B1, “PYRROLIDINE DERIVATIVES, PHARMACEUTICAL COMPOSITIONS CONTAINING THEM, AND THEIR USE IN THERAPY” (AbbVie Deutschland GmbH & Co. KG, priority 2013, dated 2014):
# Target: T1, human GlyT1c transporter (Homo sapiens, UniProt P48067)
# T1 construct: expressed in transfected cells; host or cells: CHO cells (recombinant; line hGlyT1c_5_CHO is named for the uptake assay)
# T1 sequence (P48067 1-706): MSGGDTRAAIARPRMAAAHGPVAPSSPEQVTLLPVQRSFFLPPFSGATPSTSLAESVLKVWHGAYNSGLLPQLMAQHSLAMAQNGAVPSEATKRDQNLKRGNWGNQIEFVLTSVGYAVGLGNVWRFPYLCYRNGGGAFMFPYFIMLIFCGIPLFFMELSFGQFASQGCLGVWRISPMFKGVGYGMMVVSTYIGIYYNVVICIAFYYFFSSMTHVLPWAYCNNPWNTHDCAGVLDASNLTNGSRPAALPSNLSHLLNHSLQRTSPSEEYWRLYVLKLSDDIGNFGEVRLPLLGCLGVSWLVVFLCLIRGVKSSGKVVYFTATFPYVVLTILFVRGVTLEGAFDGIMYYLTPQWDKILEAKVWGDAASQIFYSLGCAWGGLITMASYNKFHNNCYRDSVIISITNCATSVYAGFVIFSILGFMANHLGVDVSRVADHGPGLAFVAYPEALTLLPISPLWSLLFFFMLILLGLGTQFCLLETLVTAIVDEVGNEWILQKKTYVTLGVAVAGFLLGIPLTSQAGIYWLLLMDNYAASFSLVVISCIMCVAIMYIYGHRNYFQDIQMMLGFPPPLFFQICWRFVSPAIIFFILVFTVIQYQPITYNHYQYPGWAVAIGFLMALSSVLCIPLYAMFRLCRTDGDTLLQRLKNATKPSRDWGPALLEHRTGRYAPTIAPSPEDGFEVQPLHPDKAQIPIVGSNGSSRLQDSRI
# Assay: Radioligand binding assay using recombinant CHO cell membranes expressing human GlyT1
# Settings: radioligand binding to human GlyT1c transporter-expressing membranes
# Text: 2. Radioligand binding assays using recombinant CHO cell membranes expressing human GlyT1: […]
row,SMILES,Ki [µM]
1,"O=S(=O)(c1cnc2n1CCC2)N1CC(Nc2ccc(F)c(F)c2)C(c2ccccc2)C1 (stereo not drawn) [Example 497, N-(3,4-difluorophenyl)-1-(6,7-dihydro-5H-pyrrolo[1,2-a]imidazol-3-ylsulfonyl)-4-phenylpyrrolidin-3-amine]",≤ 10
2,"O=S(=O)(CC1CCCCO1)N1CC(Nc2ccc(F)c(F)c2)C(c2ccccc2)C1 (stereo not drawn) [Example 498, N-(3,4-difluorophenyl)-4-phenyl-1-[(tetrahydro-2H-pyran-2-ylmethyl)sulfonyl]pyrrolidin-3-amine]",≤ 10
3,"CC(=O)Nc1ncc(S(=O)(=O)N2CC(Nc3ccc(F)c(F)c3)C(c3ccccc3)C2)s1 (stereo not drawn) [Example 499, N-[5-({3-[(3,4-difluorophenyl)amino]-4-phenylpyrrolidin-1-yl}sulfonyl)-1,3-thiazol-2-yl]acetamide]",≥ 10
4,"O=S(=O)(c1ccc(C(F)(F)F)nc1)N1CC(Nc2ccc(F)c(F)c2)C(c2ccccc2)C1 (stereo not drawn) [Example 500, N-(3,4-difluorophenyl)-4-phenyl-1-{[6-(trifluoromethyl)pyridin-3-yl]sulfonyl}pyrrolidin-3-amino]",≤ 10
5,"O=c1[nH]c2ccc(S(=O)(=O)N3CC(Nc4ccc(F)c(F)c4)C(c4ccccc4)C3)cc2[nH]c1=O (stereo not drawn) [Example 501, 6-({3-[(3,4-difluorophenyl)amino]-4-phenylpyrrolidin-1-yl}sulfonyl)-1,4-dihydroquinoxaline-2,3-dione]",≤ 10
6,"Cn1ccc2cc(S(=O)(=O)N3CC(Nc4ccc(F)c(F)c4)C(c4ccccc4)C3)ccc21 (stereo not drawn) [Example 503, N-(3,4-difluorophenyl)-1-[(1-methyl-1H-indol-5-yl)sulfonyl]-4-phenylpyrrolidin-3-amine]",≥ 10
7,"O=c1[nH]c2ccc(S(=O)(=O)N3CC(Nc4ccc(F)c(F)c4)C(c4ccccc4)C3)cc2[nH]1 (stereo not drawn) [Example 506, 5-({3-[(3,4-difluorophenyl)amino]-4-phenylpyrrolidin-1-yl}sulfonyl)-1,3-dihydro-2H-benzimidazol-2-one]",≤ 10
8,"O=C1Cc2cc(S(=O)(=O)N3CC(Nc4ccc(F)c(F)c4)C(c4ccccc4)C3)ccc2N1 (stereo not drawn) [Example 507, 5-({3-[(3,4-difluorophenyl)amino]-4-phenylpyrrolidin-1-yl}sulfonyl)-1,3-dihydro-2H-indol-2-one]",≤ 10
9,"O=S(=O)(C1CCCCC1)N1CC(Nc2ccc(F)c(F)c2)C(c2ccccc2)C1 (stereo not drawn) [Example 510, 1-(cyclohexylsulfonyl)-N-(3,4-difluorophenyl)-4-phenylpyrrolidin-3-amine]",≤ 10
10,O=C1CCc2cc(S(=O)(=O)N3CC(Nc4ccc(F)c(F)c4)C(c4ccccc4)C3)ccc2N1 (stereo not drawn) [Example 512],≤ 10
11,"Cc1noc(C)c1S(=O)(=O)N1CC(Nc2ccc(F)c(F)c2)C(c2ccccc2)C1 (stereo not drawn) [Example 513, N-(3,4-difluorophenyl)-1-[(3,5-dimethyl-1,2-oxazol-4-yl)sulfonyl]-4-phenylpyrrolidin-3-amine]",> 10
12,"O=c1[nH]c2cc(S(=O)(=O)N3CC(Nc4ccc(F)c(F)c4)C(c4ccccc4)C3)ccc2o1 (stereo not drawn) [Example 514, 5-({3-[(3,4-difluorophenyl)amino]-4-phenylpyrrolidin-1-yl}sulfonyl)-1,3-benzoxazol-2(3H)-one]",≤ 10
13,"O=S(=O)(c1cccc2cnccc12)N1CC(Nc2ccc(F)c(F)c2)C(c2ccccc2)C1 (stereo not drawn) [Example 515, N-(3,4-difluorophenyl)-1-(isoquinolin-5-ylsulfonyl)-4-phenylpyrrolidin-3-amine]",≤ 10
14,"Cc1cc(S(=O)(=O)N2CC(Nc3ccc(F)c(F)c3)C(c3ccccc3)C2)c(C)s1 (stereo not drawn) [Example 517, N-(3,4-difluorophenyl)-1-[(2,5-dimethylthiophen-3-yl)sulfonyl]-4-phenylpyrrolidin-3-amine]",≤ 10
15,"Cc1ccc(S(=O)(=O)N2CC(Nc3ccc(F)c(F)c3)C(c3ccccc3)C2)s1 (stereo not drawn) [Example 518, N-(3,4-difluorophenyl)-1-[(5-methylthiophen-2-yl)sulfonyl]-4-phenylpyrrolidin-3-amine]",> 10
16,"O=S(=O)(c1ccc2c(c1)CCO2)N1CC(Nc2ccc(F)c(F)c2)C(c2ccccc2)C1 (stereo not drawn) [Example 519, N-(3,4-difluorophenyl)-1-(2,3-dihydro-1-benzofuran-5-ylsulfonyl)-4-phenylpyrrolidin-3-amine]",> 10
17,"O=S(=O)(c1c(Cl)nc2sccn12)N1CC(Nc2ccc(F)c(F)c2)C(c2ccccc2)C1 (stereo not drawn) [Example 520, 1-[(6-chloroimidazo[2,1-b][1,3]thiazol-5-yl)sulfonyl]-N-(3,4-difluorophenyl)-4-phenylpyrrolidin-3-amine]",≤ 10

row,SMILES,Ki [µM]
1,"O=S(=O)(N1CCOCC1)N1CC(Nc2ccc(F)c(F)c2)C(c2ccccc2)C1 (stereo not drawn) [Example 521, N-(3,4-difluorophenyl)-1-(morpholin-4-ylsulfonyl)-4-phenylpyrrolidin-3-amine]",≤ 10
2,"COc1nccc(N[C@H]2CN(S(=O)(=O)c3cn(C)cn3)C[C@@H]2c2ccccc2)n1 [Example 532, 2-methoxy-N-{(3R,4S)-1-[(1-methyl-1H-imidazol-4-yl)sulfonyl]-4-phenylpyrrolidin-3-yl}pyrimidin-4-amine]",≤ 10
3,"Cc1nc(CN[C@H]2CN(S(=O)(=O)c3cn(C)cn3)C[C@@H]2c2ccccc2)cs1 [Example 533, (3R,4S)-1-[(1-methyl-1H-imidazol-4-yl)sulfonyl]-N-[(2-methyl-1,3-thiazol-4-yl)methyl]-4-phenylpyrrolidin-3-amine]",≤ 10
4,"CCc1oc2ccccc2c1CN[C@H]1CN(S(=O)(=O)c2cn(C)cn2)C[C@@H]1c1ccccc1 [Example 534, (3R,4S)-N-[(2-ethyl-1-benzofuran-3-yl)methyl]-1-[(1-methyl-1H-imidazol-4-yl)sulfonyl]-4-phenylpyrrolidin-3-amine]",≤ 1
5,"Cn1cnc(S(=O)(=O)N2C[C@H](NCc3cccn4ccnc34)[C@@H](c3ccccc3)C2)c1 [Example 535, (3R,4S)-N-(imidazo[1,2-a]pyridin-8-ylmethyl)-1-[(1-methyl-1H-imidazol-4-yl)sulfonyl]-4-phenylpyrrolidin-3-amine]",≤ 10
6,"Cc1ccc(CN[C@H]2CN(S(=O)(=O)c3cn(C)cn3)C[C@@H]2c2ccccc2)nc1 [Example 536, (3R,4S)-1-[(1-methyl-1H-imidazol-4-yl)sulfonyl]-N-[(5-methylpyridin-2-yl)methyl]-4-phenylpyrrolidin-3-amine]",≤ 1
7,"Cn1cnc(S(=O)(=O)N2C[C@H](NCc3cnn4ccccc34)[C@@H](c3ccccc3)C2)c1 [Example 537, (3R,4S)-1-[(1-methyl-1H-imidazol-4-yl)sulfonyl]-4-phenyl-N-(pyrazolo[1,5-a]pyridin-3-ylmethyl)pyrrolidin-3-amine]",≤ 10
8,"Cn1cnc(S(=O)(=O)N2CC(NCc3ccc(C(F)(F)F)cc3)C(O)(c3ccccc3)C2)c1 (stereo not drawn) [Example 539, 1-[(1-methyl-1H-imidazol-4-yl)sulfonyl]-3-phenyl-4-{[4-(trifluoromethyl)benzyl]amino}pyrrolidin-3-ol]",≤ 10
9,"CCOC(=O)N[C@H]1CN(S(=O)(=O)c2cn(C)cn2)C[C@@H]1c1ccccc1 [Example 541, ethyl {(3R,4S)-1-[(1-methyl-1H-imidazol-4-yl)sulfonyl]-4-phenylpyrrolidin-3-yl}carbamate]",≤ 10
10,"CCCOC(=O)N[C@H]1CN(S(=O)(=O)c2cn(C)cn2)C[C@@H]1c1ccccc1 [Example 542, propyl {(3R,4S)-1-[(1-methyl-1H-imidazol-4-yl)sulfonyl]-4-phenylpyrrolidin-3-yl}carbamate]",≤ 10
11,"CCCCOC(=O)N[C@H]1CN(S(=O)(=O)c2cn(C)cn2)C[C@@H]1c1ccccc1 [Example 544, butyl {(3R,4S)-1-[(1-methyl-1H-imidazol-4-yl)sulfonyl]-4-phenylpyrrolidin-3-yl}carbamate]",≤ 10
12,"Cn1cnc(S(=O)(=O)N2C[C@H](NCCC3CC3)[C@@H](c3ccccc3)C2)c1 [Example 545, (3R,4S)-N-(2-cyclopropylethyl)-1-[(1-methyl-1H-imidazol-4-yl)sulfonyl]-4-phenylpyrrolidin-3-amine]",≤ 1
13,"Cn1cnc(S(=O)(=O)N2C[C@H](NC(=O)CC3CC3)[C@@H](c3ccccc3)C2)c1 [Example 546, 2-cyclopropyl-N-{(3R,4S)-1-[(1-methyl-1H-imidazol-4-yl)sulfonyl]-4-phenylpyrrolidin-3-yl}acetamide]",≥ 10
14,"CCC/C=C/CN[C@H]1CN(S(=O)(=O)c2cn(C)cn2)C[C@@H]1c1ccccc1 [Example 547, (3R,4S)-N-[(2E)-hex-2-en-1-yl]-1-[(1-methyl-1H-imidazol-4-yl)sulfonyl]-4-phenylpyrrolidin-3-amine]",≤ 0.1
15,"CCCCC(=O)N[C@H]1CN(S(=O)(=O)c2cn(C)cn2)C[C@@H]1c1ccccc1 [Example 549, N-{(3R,4S)-1-[(1-methyl-1H-imidazol-4-yl)sulfonyl]-4-phenylpyrrolidin-3-yl}pentanamide]",≤ 10
16,"CCCCCC(=O)N[C@H]1CN(S(=O)(=O)c2cn(C)cn2)C[C@@H]1c1ccccc1 [Example 550, N-{(3R,4S)-1-[(1-methyl-1H-imidazol-4-yl)sulfonyl]-4-phenylpyrrolidin-3-yl}hexanamide]",≤ 10
